In patent publication US20250170114A1, “METHODS OF TREATMENT USING T-TYPE CALCIUM CHANNEL MODULATORS” (Praxis Precision Medicines, Inc., priority 2022, published 2025):

Assays:
[1] = tested on: participants with ET; assay: Phase 2 trial: Patient Global Impression of Change (PGI-C); format: in vivo, human; conditions: Part B RWD (RWAS), Day 70, study drug group, n = 5, vs randomization baseline
Excerpt: The Patient Global Impression of Change (PGI-C) assesses the participant's improvement (or worsening). The participant is required to assess their condition relative to Baseline (Day 0) on a 7-point scale from 1 (very much improved) to 7 (very much worse). The assessment is made independent of whether the participant believes the improvement/worsening was drug-related or not. In some embodiments, the method results in a reduction in PGI-C score compared to baseline. The Columbia-Suicide Severity Rating Scale (C-SSRS) assesses suicidal ideation and behavior in participants during participation in a clinical trial of centrally-acting drugs. The C-SSRS is composed of 5 questions addressing suicidal behavior and 5 questions addressing suicidal ideation, with sub-questions assessing the severity. The tool should be administered via interview with the participant (by a trained operator/interviewer) and takes about 5 to 10 minutes to complete. In some embodiments, the method results in a reduction in suicidal ideation and/or behavior as compared to suicidal ideation and/or behavior prior to treatment. In other embodiments, the method results in no change in the C-SSRS score of a patient as compared to the C-SSRS score prior to treatment. Key safety measures included clinical laboratory evaluations, 12-lead ECG, C-SSRS, and vital signs. Key efficacy assessments included the TETRAS Performance subscale, TETRAS Upper Limb using accelerometry, CGI, and PGI-C. Blood samples were obtained for the determination of study drug plasma concentrations using a validated bioanalytical method and may also be used for method development and/or metabolite characterization. In both phases, key safety measures included clinical laboratory evaluations, 12-lead ECG, C-SSRS, and vital signs. Key efficacy assessments included the TETRAS Performance subscale, TETRAS Upper Limb using accelerometry, CGI, PGI-C, TETRAS ADL Subscale, QUEST, BDI-II, and BAI. Blood samples were obtained for the determination of study drug and metabolite plasma concentrations.

[2] = tested on: participants with ET; assay: Phase 2 trial Part B: Beck Depression Inventory (BDI-II); format: in vivo, human
Protocol: The Beck Depression Inventory (BDI-II) is a list of 21 common symptoms of depression (Beck et al 1996). Each item is scored on a 4-point Likert scale (range of scores is 0 through 3). The time frame for assessment is the […] or since the last assessment. The BDI-II is divided into 2 subscales: Affective and Somatic. The subscale scores are calculated as the sum of the items comprising each subscale. The total score is calculated as the sum of all 21 items and ranges from 0 to 63. A total score of 0 to 13 indicates minimal depressive symptoms. A total score of 14 to 19 indicates mild depressive symptoms. A total score of 20 to 28 indicates moderate depressive symptoms. A total score of 29 to 63 indicates severe depressive symptoms. The BDI-II is assessed at screening to exclude participants with moderate to severe depressive symptoms. […] In both phases, key safety measures included clinical laboratory evaluations, 12-lead ECG, C-SSRS, and vital signs. Key efficacy assessments included the TETRAS Performance subscale, TETRAS Upper Limb using accelerometry, CGI, PGI-C, TETRAS ADL Subscale, QUEST, BDI-II, and BAI. Blood samples were obtained for the determination of study drug and metabolite plasma concentrations.

[3] = Part B OLT (FAS), Day 7, n = 13
[4] = Part B OLT (FAS), Day 21, n = 12
[5] = Part B OLT (FAS), Day 42, n = 10
[6] = Part B RWD (RWAS), Day 56, Study drug, n = 6
[7] = Part B RWD (RWAS), Day 70, Study drug, n = 5

CC(C)(C)NC(=O)CN1CCC(CNC(=O)c2cc(F)cc(Cl)c2)CC1.Cl [Study drug]
PGI-C Score 3 minimally improved [1]: 1 (20.0) n (%) | PGI-C Score 4 no change [1]: 3 (60.0) n (%) | PGI-C Score 6 much worse [1]: 1 (20.0) n (%) | BDI-II Depressive Symptoms Mild (14-19) [2, 3]: 1 n (%) | BDI-II Depressive Symptoms Minimal (0-13) [2, 3]: 12 n (%) | BDI-II Depressive Symptoms Moderate (20-28) [2, 3]: 0 n (%) | BDI-II Depressive Symptoms Severe (29-63) [2, 3]: 0 n (%) | BDI-II Depressive Symptoms Mild (14-19) [2, 4]: 1 n (%) | BDI-II Depressive Symptoms Minimal (0-13) [2, 4]: 11 n (%) | BDI-II Depressive Symptoms Moderate (20-28) [2, 4]: 0 n (%) | BDI-II Depressive Symptoms Severe (29-63) [2, 4]: 0 n (%) | BDI-II Depressive Symptoms Mild (14-19) [2, 5]: 0 n (%) | BDI-II Depressive Symptoms Minimal (0-13) [2, 5]: 10 n (%) | BDI-II Depressive Symptoms Moderate (20-28) [2, 5]: 0 n (%) | BDI-II Depressive Symptoms Severe (29-63) [2, 5]: 0 n (%) | BDI-II Depressive Symptoms Mild (14-19) [2, 6]: 0 n (%) | BDI-II Depressive Symptoms Minimal (0-13) [2, 6]: 6 n (%) | BDI-II Depressive Symptoms Moderate (20-28) [2, 6]: 0 n (%) | BDI-II Depressive Symptoms Severe (29-63) [2, 6]: 0 n (%) | BDI-II Depressive Symptoms Mild (14-19) [2, 7]: 1 n (%) | BDI-II Depressive Symptoms Minimal (0-13) [2, 7]: 4 n (%) | BDI-II Depressive Symptoms Moderate (20-28) [2, 7]: 0 n (%) | BDI-II Depressive Symptoms Severe (29-63) [2, 7]: 0 n (%) | change in BDI-II scores ([2]; Part B, pre-dose baseline to Day 70): no clinically meaningful change over time
